Experiments:
neutrophils = assay: zebrafish tail fin wounding assay, neutrophil migration to wounded site; format: in vivo, zebrafish (Danio rerio)
Procedure: (§1) Zebrafish (Danio rerio) were maintained and handled according to the guidelines from the Zebrafish Model Organism Database (http://zfin.org) and in compliance with the directives of the local animal welfare committee of Leiden University. Zebrafish were exposed to a 14 h light and 10 h dark cycle to maintain circadian rhythmicity. Fertilization was performed by natural spawning at the beginning of the light period. […] The following zebrafish lines were used in this study: the double transgenic line Tg(mpx:GFP^i114/mpeg1:mCherry^umsF001), in which neutrophils and macrophages are fluorescently labeled (green and red, respectively), and the Tg(9xGCRE-HSV.UI23:EGFP)^ia20 reporter line, in which the gene encoding enhanced green fluorescent protein (EGFP) is driven by a GRE-containing promoter.
(§2) For the tail fin wounding experiments, 20 larvae at 2 or 3 days post-fertilization (dpf) were utilized for each experimental group. For wounding, larvae were anesthetized in egg water containing 0.02% buffered aminobenzoic acid ethyl ester (tricaine; Sigma-Aldrich). Larvae were placed on Petri dishes coated with 2% agarose under a Leica M165C stereomicroscope (Leica Microsystems, Wetzlar, Germany), and the tails were partly amputated using a 1-mm sapphire blade (World Precision Instruments, Sarasota, FL, USA). For quantification of leukocyte migration, larvae were fixed overnight in 4% paraformaldehyde (PFA) at 4° C. The next day, fixed larvae were washed with Phosphate Buffered Saline (PBS) containing 0.1% Tween 20, and stored at 4° C. until imaging.
(§3) The macrophages were detected based on their red (mCherry) fluorescence, and neutrophils based on their green (EGFP) fluorescence. To quantify the number of macrophages and neutrophils recruited to the wounded area, the cells in a defined area of the tail were determined by blinded manual counting.
(§4) Zebrafish (Danio rerio) were maintained and handled according to the guidelines from the Zebrafish Model Organism Database (http://zfin.org) and in compliance with the directives of the local animal welfare committee of Leiden University. Zebrafish were exposed to a 14 h light and 10 h dark cycle to maintain circadian rhythmicity. Fertilization was performed by natural spawning at the beginning of the light period. […] The following zebrafish lines were used in this study: AB/TL wild type, the transgenic lines Tg(mpx:GFP^i114/mpeg1:mCherry^umsF001)[14, 15], and Tg(9xGCRE-HSV.UI23:EGFPia^20)[16], and the mutant lines grs357[20].
(§5) For the tail fin wounding experiments, 2- or 3-days post-fertilization (dpf) larvae were anesthetized in egg water containing 0.02% buffered aminobenzoic acid ethyl ester (tricaine; Sigma-Aldrich). Larvae were placed in Petri dishes coated with 2% agarose under a Leica M165C stereomicroscope (Leica Microsystems, Wetzlar, Germany), and the tails were partly amputated using a 1-mm sapphire blade (World Precision Instruments, Sarasota, FL, USA).
(§6) In experiments in which the leukocyte migration was used as a readout, larvae were subjected to treatment with chemicals as indicated, starting at 2 h before the amputation (pretreatment), and treatment was continued for 4 h after the tail fin amputation (20 larvae per group, unless indicated otherwise). In some experiments, a 24 h treatment with MZ31 (10 μM) was started at 2 dpf, and these treatments were continued during the pretreatment and treatment with the other chemicals. At 4 h after amputation, the larvae were fixed in 4% paraformaldehyde (PFA) overnight at 4° C. The next day, fixed larvae were washed with Phosphate Buffered Saline (PBS) containing 0.1% Tween 20 and stored at 4° C. until imaging. […] The macrophages were detected based on red (mCherry) fluorescence and neutrophils on their green (EGFP) fluorescence. To quantify the number of macrophages and neutrophils recruited to the wounded area, the cells in a defined area of the tail were determined by blinded manual counting. […]

gr = assay: Gr transactivation activity in Tg(9xGCRE-HSV.UI23:EGFP)ia20 reporter larvae; format: in vivo, zebrafish (Danio rerio); conditions: 24 h from 2 dpf; 10 μM GC, 50 μM Rg1 or combination
Procedure: (§7) To investigate the Gr transactivation activity in zebrafish larvae, the Tg(9xGCRE-HSV.UI23:EGFP)^ia20 reporter line was used, which expresses enhanced green fluorescent protein (EGFP) under the control of a promoter containing an array of nine GREs. […] The integrated intensity of the EGFP signal in the larvae was determined using ImageJ software.
as §7, with “Tg(9xGCRE-HSV.UI23:EGFP^ia20)” for “Tg(9xGCRE-HSV.UI23:EGFP)^ia20”

[1] = size exclusion chromatography of micelles (Sephadex G50) with HPLC; format: physicochemical
Procedure: The size and content of the micelles were determined by means of size exclusion chromatography. 1 mL of aqueous ginsenoside/dexamethasone solution was loaded on a Sephadex G50 size exclusion column (size 25×1 cm) and eluted under gravity with water. Blue dextran (MW=2.000.000 Da) and erythrosine (880 Da) were used as molecular weight markers. Fractions of 2.0 mL were collected. The fractions were dried and dissolved in 70% methanol and the ginsenoside content was analyzed by means of HPLC. HPLC conditions were: • HPLC equipment: HPLC/DAD Aligent 1200 series, a quaternary pump connected to a DAD and autosampler. • Stationary phase: Kinetex 2.6 μm, C18 100 Å, 100×4.6 mm-Phenomenex, USA • Mobile phase: • A: 0.03% o-phosphoric acid (H3PO4) in Ultrapure H2O • B: 0.03% o-phosphoric acid (H3PO4) in Acetonitrile (LiChrosolv, Millipore-Merck, Darmstadt, Germany; quality far UV) • Gradient:
• Conditions • Flow: 0.8 ml/min • Injection volume: 20 μL • Column temperature: 35° C. • Detection wavelength: 203 and 241 nm

[2] = rule of thumb, literature table; cited from earlier work
zebrafish larvae [3] = assay: tail fin regeneration assay
macrophages = assay: zebrafish tail fin wounding assay, macrophage migration to wounded site; format: in vivo, zebrafish (Danio rerio); conditions: Example 3, ginsenoside Re
Procedure: as §1, §2, §3, §4, §5, §6

[4] = micelle formation from dried film dissolved in H2O; appearance of solution; format: physicochemical
Procedure: Dried leaves of the plant Panax ginseng (8 gram) were boiled in water (350 mL), filtrated and loaded on a 20 mL Bed Volume (BV) column filled with macroporous resin (type D101). After extensively washing with water (15 BV's) the ginsenosides were eluted with 60% EtOH. The ginsenoside solution was decolorized by passing through a 20 mL BV column filled with type D941 macroporous resin. Subsequently, the solvents were slowly evaporated, after at 80° C. under reduced pressure (375 hPa) using a glass vials and a evaporator (P12-Multivapor, Buchi). After evaporation of both the ethanol and the water, a transparent film was formed on the wall of the glass vial.
In parallel 100 mg pure Re was solved in 10 mL of ethanol. […] The ethanol was slowly removed at 80° C. under low pressure (375 hPa) using a glass vials and a evaporator (P12-Multivapor). Again a clear film was formed on the wall of the glass tubes.
Micelle formation of ginsenoside extract obtained from dried leaves as described above was repeated in the presence of 0.6 mg of dexamethasone. Dexamethasone was first dissolved in ethanol in a concentration of 10 mg/mL and 0.6 mg of dexamethasone was added to the ethanolic ginsenoside fraction obtained after purification and decolorization by D101 and D941 resins respectively, using the method described herein above. The content of Re and Rg1 in this ethanolic ginsenoside fraction was 4 mg/10 mL as determined by HPLC (see below). The molecular ratio between dexamethasone and Re/Rel in this solution was around 5:70. The ethanol fraction was slowly removed at 80° C. under reduced pressure (375 hPa) using a glass vials and a evaporator to obtain a film. […] The content and the presence of micelles were assessed by size exclusion chromatography as described below.

zebrafish larvae [5] = assay: whole-body glucose measurement of zebrafish larvae; conditions: Example 3, ginsenoside Re
zebrafish larvae [6] = assay: whole-body cortisol measurement of zebrafish larvae (ELISA); conditions: Example 3, ginsenoside Re

Row | detection of free dexamethasone in fractions after 55 mL [1] | SMILES | neutrophil migration to the wounded site (neutrophils; 10 μM dexamethasone) | relative EGFP intensity (Gr transactivation) (gr) | co-elution of dexamethasone with micelles / encapsulation ([1]; Sephadex G50 fractions) | dose equivalent to a 5 mg prednisone dose [2] | regeneration of amputated tail fin (length of regenerated tissue at 5 dpf) (zebrafish larvae [3]; 0-5 dpf, 10 μM beclomethasone or dexamethasone, 50 μM Rg1 or combinations, amputation at 2 dpf) | migration of neutrophils to the wounded tail area (neutrophils; Example 3, ginsenoside Re) | migration of macrophages (macrophages) | appearance of solution in ethanol ([4]; 100 mg in 10 mL of ethanol) | appearance of solution in H2O after dissolving the film ([4]; film from ethanol (or 60% EtOH) evaporation, dissolved in H2O) | micelle formation / crystallization in H2O ([4]; microscopic determination, 10 mL H2O) | regenerative tissue (zebrafish larvae [3]; Example 3, ginsenoside Re) | whole body glucose (zebrafish larvae [5]) | whole body cortisol (zebrafish larvae [6])
1 | could not be detected in these fractions | C[C@@H]1C[C@H]2[C@@H]3CCC4=CC(=O)C=C[C@]4(C)[C@@]3(F)[C@@H](O)C[C@]2(C)[C@@]1(O)C(=O)CO [dexamethasone, reference compound] | did not affect neutrophil migration | significantly increased the relative EGFP intensity | co-eluted with the Re and Rg1 containing micelles | about 0.75 mg | dexamethasone-induced inhibition of the regenerative process |  |  |  |  |  |  |  | 
2 |  | CC(C)=CCC[C@](C)(O[C@@H]1O[C@H](CO)[C@@H](O)[C@H](O)[C@H]1O)[C@H]1CC[C@]2(C)[C@@H]1[C@H](O)C[C@@H]1[C@@]3(C)CC[C@H](O)C(C)(C)[C@@H]3[C@@H](O[C@@H]3O[C@H](CO)[C@@H](O)[C@H](O)[C@H]3O[C@@H]3O[C@@H](C)[C@H](O)[C@@H](O)[C@H]3O)C[C@]12C [Re, (3β, 6α, 12β)-20-(β-D-Glucopyranosyloxy)-3, 12-dihydroxydammar-24-en-6-yl 2-O-(6-deoxy-α-L-mannopyranosyl)-β-D-glucopyranoside] |  |  |  |  |  | inhibited the migration of neutrophils to the wounded tail area | did not inhibit the migration of macrophages | clear solution | cloudy solution | crystallization of Re (FIG. 12B) and no micelles were obtained | did not affect regenerative tissue | no side effects could be observed | no side effects could be observed
